The values that follow come from US9409908B2 (priority 2012, dated 2016).

For series [1] the following is noted: rcm bond, Grubbs II, 40.0 °C.
The conditions of series [2]: from C=CC[C@H](NC(=O)OC(C)(C)C)c1cc(-c2ccncc2NC(=O)[C@H](C)C=C)ccn1; rcm bond; 12-membered ring; Grubbs II/pTsOH; CH2Cl2; 5.2 mM; 40.0 °C.
In series [3] the target is purified human Factor XIa (Homo sapiens (Human), UniProt P03951). In words: biochemical. The conditions noted are these: read-out: Factor XIa Ki. In kind it is biochemical.
The target in series [4] is purified human plasma kallikrein (Homo sapiens (Human), UniProt P03952). In words: biochemical. In kind it is biochemical. As to conditions: read-out: Plasma Kallikrein Ki.

Counter-ions that a name gives are not always drawn. Like-named read-outs stand apart in the source and are kept apart here. Bounds are passed on as bounds.

purified human plasma kallikrein, sequence (P03952 whole entry, looked up): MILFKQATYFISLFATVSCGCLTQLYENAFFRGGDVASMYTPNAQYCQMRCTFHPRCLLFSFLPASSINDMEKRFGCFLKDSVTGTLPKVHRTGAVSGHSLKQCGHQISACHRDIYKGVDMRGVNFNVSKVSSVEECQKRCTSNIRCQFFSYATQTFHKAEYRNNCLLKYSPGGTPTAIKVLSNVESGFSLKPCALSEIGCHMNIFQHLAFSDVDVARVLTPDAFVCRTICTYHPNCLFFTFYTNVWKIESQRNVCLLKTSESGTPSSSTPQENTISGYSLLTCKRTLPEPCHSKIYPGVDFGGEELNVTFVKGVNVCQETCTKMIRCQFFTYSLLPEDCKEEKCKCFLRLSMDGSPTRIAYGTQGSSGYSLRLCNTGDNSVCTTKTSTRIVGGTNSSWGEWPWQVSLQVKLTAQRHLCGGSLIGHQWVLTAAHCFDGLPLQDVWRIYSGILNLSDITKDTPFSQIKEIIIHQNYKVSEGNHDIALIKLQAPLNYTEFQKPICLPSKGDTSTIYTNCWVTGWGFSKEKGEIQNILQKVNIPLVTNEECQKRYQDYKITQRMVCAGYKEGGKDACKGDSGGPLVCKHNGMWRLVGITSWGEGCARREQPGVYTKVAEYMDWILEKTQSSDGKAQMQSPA
purified human plasma kallikrein, sequence (P03952 whole entry partner, looked up): as the sequence (P03952 whole entry, looked up) above
purified human Factor XIa, sequence (P03951 whole entry, looked up): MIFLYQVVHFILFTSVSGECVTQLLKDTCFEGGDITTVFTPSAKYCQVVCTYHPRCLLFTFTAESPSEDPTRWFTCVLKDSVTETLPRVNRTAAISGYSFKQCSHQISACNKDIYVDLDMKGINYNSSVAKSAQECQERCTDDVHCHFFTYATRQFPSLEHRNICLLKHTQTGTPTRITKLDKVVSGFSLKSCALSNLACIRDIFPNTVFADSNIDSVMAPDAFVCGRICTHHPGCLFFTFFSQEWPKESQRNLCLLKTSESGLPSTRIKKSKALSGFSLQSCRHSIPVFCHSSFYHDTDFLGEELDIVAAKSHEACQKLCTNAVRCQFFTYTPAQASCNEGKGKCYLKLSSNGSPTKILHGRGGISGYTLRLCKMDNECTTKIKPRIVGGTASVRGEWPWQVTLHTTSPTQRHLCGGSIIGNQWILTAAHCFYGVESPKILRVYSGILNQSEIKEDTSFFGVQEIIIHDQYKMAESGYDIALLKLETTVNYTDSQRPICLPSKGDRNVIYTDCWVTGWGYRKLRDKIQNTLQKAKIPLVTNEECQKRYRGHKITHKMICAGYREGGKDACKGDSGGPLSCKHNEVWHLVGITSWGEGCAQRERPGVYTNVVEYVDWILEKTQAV
purified human Factor XIa, sequence (P03951 whole entry partner, looked up): as the sequence (P03951 whole entry, looked up) above

Take `C[C@@H]1/C=C/C[C@H](NC(=O)OC(C)(C)C)c2cc(ccn2)-c2ccccc2NC1=O`: the ring closure, yield of all isomers in series [1] (from C=CC[C@H](NC(=O)OC(C)(C)C)c1cc(-c2ccccc2NC(=O)[C@H](C)C=C)ccn1, dichloromethane, 11.8 mM, 4.5 h) was 78%. In series [2], `C[C@@H]1/C=C/C[C@H](NC(=O)OC(C)(C)C)c2cc(ccn2)-c2ccncc2NC1=O` showed a ring closure, yield after HPLC of 7.3%. In series [1] (from C=CC[C@H](NC(=O)OC(C)(C)C)c1cc(-c2ccncc2NC(=O)[C@H](C)C=C)ccn1, CH2Cl2, 5.06 mM, 24.0 h), the ring closure, yield of all isomers is 7.3%. In turn, `COC(=O)Nc1ccc2c(c1)C(=O)NC/C=C/C[C@H](NC(=O)OC(C)(C)C)c1cc-2ccn1` had a ring closure, yield of all isomers in series [1] (from C=CCNC(=O)c1cc(NC(=O)OC)ccc1-c1ccnc([C@H](CC=C)NC(=O)OC(C)(C)C)c1, DCM, […], 3.0 h) of 39.4%. For the compound `COC(=O)Nc1ccc2c(c1)NC(=O)[C@H](C)/C=C/C[C@H](NC(=O)OC(C)(C)C)c1nc-2cn1COCC[Si](C)(C)C`, in series [1] (from C=CC[C@H](NC(=O)OC(C)(C)C)c1nc(-c2ccc(NC(=O)OC)cc2NC(=O)[C@H](C)C=C)cn1COCC[Si](C)(C)C, dichloromethane, 9.73 mM, 21.5 h), the ring closure, yield of all isomers turned out to be 74%.

In general, Ki refers to the equilibrium dissociation constant of an inhibitor or competing ligand from its target. For the compound `COC(=O)Nc1ccc2c(c1)NC(=O)[C@H](C)CCC[C@H](n1ncc(-c3c(Br)ccc(Cl)c3F)cc1=O)c1cc-2ccn1` [Example 78, Methyl N-[(10R,14S)-14-[4-(6-bromo-3-chloro-2-fluorophenyl)-6-oxo-1,6-dihydropyridazin-1-yl]-10-methyl-9-oxo-8,16-diazatricyclo[13.3.1.0^2,7]nonadeca-1(19),2(7),3,5,15,17-hexaen-5-yl]carbamate, TFA salt], the Ki in series [3] was 0.98 nM; in series [4] it was 5 nM. Take `CC(C)[C@H]1CCC[C@H](N2CCC(c3c(F)ccc(Cl)c3F)=CC2=O)c2cc(ccn2)-c2ccccc2NC1=O` [Example 96, (10R,14S)-14-[4-(3-chloro-2,6-difluorophenyl)-6-oxo-1,2,3,6-tetrahydropyridin-1-yl]-10-(propan-2-yl)-8,16-diazatricyclo[13.3.1.0^2,7]nonadeca-1(18),2,4,6,15(19),16-hexaen-9-one, TFA salt]: the Ki in series [3] was more than 422 nM; in series [4] it was 1970 nM.

Consider `C[C@@H]1CCC[C@H](N2CCC(c3c(F)ccc(Cl)c3F)=CC2=O)c2cc(ccn2)-c2ccc(Br)cc2NC1=O` [Example 69, (10R,14S)-5-Bromo-14-[4-(3-chloro-2,6-difluorophenyl)-6-oxo-1,2,3,6-tetrahydropyridin-1-yl]-10-methyl-8,16-diazatricyclo[13.3.1.0^2,7]nonadeca-1(19),2,4,6,15,17-hexaen-9-one, TFA salt], for which the Ki in series [3] came out at 79.2 nM; in series [4] it was 338 nM. The like results for `C[C@@H]1CCC[C@H](N2CCC(c3c(F)ccc(Cl)c3F)=CC2=O)c2cc(ccn2)-c2cc(C(=O)O)c(N)cc2NC1=O` [Example 198, (10R,14S)-5-amino-14-[4-(3-chloro-2,6-difluorophenyl)-6-oxo-1,2,3,6-tetrahydropyridin-1-yl]-10-methyl-9-oxo-8,16-diazatricyclo[13.3.1.0^2,7]nonadeca-1(19),2,4,6,15,17-hexaene-4-carboxylic acid, 2 TFA salt] were, in that order, less than 0.05 nM and 1 nM. `CC1CCC[C@H](N2CCC(c3c(C(F)(F)F)ccc(Cl)c3F)=CC2=O)c2cc(ccn2)-c2ccc(C(=O)O)cc2NC1=O` (stereo partly drawn) [Example 106, (14S)-14-{4-[3-Chloro-2-fluoro-6-(trifluoromethyl)phenyl]-6-oxo-1,2,3,6-tetrahydropyridin-1-yl}-10-methyl-9-oxo-8,16-diazatricyclo[13.3.1.0^2,7]nonadeca-1(18),2,4,6,15(19),16-hexaene-5-carboxylic acid, TFA salt]: the Ki was more than 342 nM in series [3] and 890 nM in series [4]. On to `COC(=O)c1ccc2c(c1)-c1cccc(c1)[C@H](N1CCC(c3c(F)ccc(Cl)c3F)=CC1=O)CCC[C@@H](C)C(=O)N2` [Example 165, Methyl (10R,14R)-14-[4-(3-chloro-2,6-difluorophenyl)-6-oxo-1,2,3,6-tetrahydropyridin-1-yl]-10-methyl-9-oxo-8-azatricyclo[13.3.1.0^2,7]nonadeca-1(19),2,4,6,15,17-hexaene-4-carboxylate], for which the inhibition constant Ki in series [3] is more than 398 nM; in series [4] it was 9470 nM.

Regarding `C[C@@H]1CCC[C@H](N2CCC(c3c(F)ccc(Cl)c3F)=CC2=O)c2cc(ccn2)-c2cc(F)c(N)cc2NC1=O` [Example 143, (10R,14S)-5-amino-14-[4-(3-chloro-2,6-difluorophenyl)-6-oxo-1,2,3,6-tetrahydropyridin-1-yl]-4-fluoro-10-methyl-8,16-diazatricyclo[13.3.1.0^2,7]nonadeca-1(19),2(7),3,5,15,17-hexaen-9-one], the inhibition constant (Ki) in series [3] was found to be 1.31 nM; in series [4], 3.38 nM. On to `C[C@@H]1CCC[C@H](N2CCC(c3c(-n4cnnn4)ccc(Cl)c3F)=CC2=O)c2cc(ccn2)-c2cc(F)ccc2NC1=O` [Example 184, (10R,14S)-14-{4-[3-chloro-2-fluoro-6-(1H-1,2,3,4-tetrazol-1-yl)phenyl]-6-oxo-1,2,3,6-tetrahydropyridin-1-yl}-4-fluoro-10-methyl-8,16-diazatricyclo[13.3.1.0^2,7]nonadeca-1(19),2(7),3,5,15,17-hexaen-9-one], for which the Ki in series [3] was less than 0.05 nM; in series [4], 2.51 nM. Take `COC(=O)Nc1ccc2c(c1)C(=O)NCCCC[C@H](N1CCC(c3c(F)ccc(Cl)c3F)=CC1=O)c1cc-2ccn1` [Example 24, Methyl N-[(14S)-14-[4-(3-chloro-2,6-difluorophenyl)-6-oxo-1,2,3,6-tetrahydropyridin-1-yl]-8-oxo-9,16-diazatricyclo[13.3.1.0^2,7]nonadeca-1(19),2(7),3,5,15,17-hexaen-5-yl]carbamate, TFA salt]: the Ki in series [3] was 270 nM; in series [4] it was 214 nM. On to `C[C@@H]1CCC[C@H](N2CCC(c3c(F)ccc(C#N)c3F)=CC2=O)c2cc(ccn2)-c2cc(C#N)ccc2NC1=O` [Example 139, (10R,14S)-14-[4-(3-cyano-2,6-difluorophenyl)-6-oxo-1,2,3,6-tetrahydropyridin-1-yl]-10-methyl-9-oxo-8,16-diazatricyclo[13.3.1.0^2,7]nonadeca-1(19),2(7),3,5,15,17-hexaene-4-carbonitrile], for which the Ki was more than 408 nM in series [3] and 6050 nM in series [4].
